1 compound from publication PMC6345968, “Structural basis for species-selective targeting of Hsp90 in a pathogenic fungus” (Nature Communications, 2019) can be followed below.

Data set [1] relates to C. albicans clinical isolate CaCi-2. Kind of data set: Growth inhibition in culture. Conditions: 48-hour exposure. It counts as cell-based, Candida albicans. The source says: (§1) We began by measuring inhibition of C. albicans growth in culture.
(§2) Each colored box represents the mean of duplicate determinations. Color scale for relative growth is provided to far right of panel, green: no inhibition to black: complete inhibition. […] Cultures were then fixed and stained by Periodic Acid-Schiff (PAS) technique to visualize fungal burden (dark red/purple signal) and underlying human cells (light pink signal). Representative fields from conventional light photomicrographs are presented at the same magnification in all panels. The experiment was repeated in two independent biological replicates to confirm results. Scale bar, 100 μm
(§3) Antifungal tolerance and resistance were determined in flat bottom, 96-well microtiter plates using a modified broth microdilution protocol as described[8],[10]. All Hsp90 inhibitors were formulated in dimethyl sulfoxide (DMSO, Sigma Aldrich Co.); fluconazole was dissolved in sterile ddH2O. Each strain was tested in duplicate on at least two occasions. […] To test for fungicidal activity, cultures from MIC plates were spotted on YPD agar plates using a spotter (Frogger, V&P Scientific, Inc). Plates were photographed after 48 h of incubations at 30 °C.

The next data set deals with C. albicans SN95. Kind of data set: Growth inhibition in culture. Conditions: 48-hour exposure. The class given is cell-based, Candida albicans.
Source text: as §1, §2, §3

In another data set the test system is C. albicans CaCi-2. Kind of data set: Checkerboard with fluconazole, Bliss independence. It counts as cell-based, Candida albicans. Conditions: 48 hours. Here is the method: Each colored box represents the mean of duplicate determinations. […] Error bars, SD.
as §3

Data set [2] concerns S. cerevisiae expressing C. albicans Hsp90. Kind of data set: Broth microdilution growth inhibition (MIC), yeast with C. albicans Hsp90 as sole Hsp90. The class given is cell-based, Saccharomyces cerevisiae. Conditions: twofold dilution series, heat map.
Source text: (§4) A critical consideration in the development of an effective antifungal is not just target binding, but also access to the target across microbial cell membranes and cell walls. Therefore, we evaluated the potency and selectivity of oxime analogs using drug susceptibility assays. We used strains of S. cerevisiae where both endogenous genes encoding isoforms of Hsp90 have been disrupted and growth is solely dependent upon C. albicans or human Hsp90 isoforms.
as §3
(In general: Dilution methods test growth across graded concentrations, often in twofold steps.)

Data set [3] concerns S. cerevisiae expressing human Hsp90α. It counts as cell-based, Saccharomyces cerevisiae. Conditions: isogenic strains.
Source text: as §4, §3

The test system of another data set is Raw264.7 macrophages. Kind of data set: Phagocytosis of GFP C. albicans by macrophages, flow cytometry. The class given is cell-based, mouse. Conditions: 2 h pre-treatment. Here is the method: Compromise of host immune function and other target-related toxicities preclude the use of non-species-selective Hsp90 inhibitors in the treatment of fungal infections. Host defense against invasive infection relies heavily on the ingestion and destruction of C. albicans by innate immune cells, such as macrophages. […] After an additional two hours, phagocytosis of the fluorescently labeled fungi was measured by flow cytometry. […] This Hsp90-dependent morphogenetic program has an important role in the organism’s virulence and interactions with host immune effectors such as macrophages.
The ingestion of GFP-marked C. albicans CaCi-2 (CaLC867, Table S4) by mouse macrophages was monitored using flow cytometry. Raw264.7 macrophage cultures were pre-treated with various concentrations of Hsp90 inhibitors for 2 h at 37 °C and then infected with fungus at a multiplicity of infection of ~2 for an additional 2 h. Wells were harvested by trypsinization and resultant cell suspensions incubated with Guava ViaCount reagent per manufacturer’s recommendation (Millipore Sigma, Cat #4000-0040). Red fluorescent signal was used to identify macrophages while green fluorescent signal identified the fungus. Dual positive (red and green) events with appropriate forward- and side-scatter parameters were quantitated as representative of ingestion of fungus by a macrophage. […]

For `C[C@@H]1C[C@H]2O[C@@H]2/C=C\C=C\C(=O)Cc2c(Cl)c(O)cc(O)c2C(=O)O1` [radicicol, reference compound], the single-agent growth inhibition result (in data set [1]; in the data set on C. albicans SN95) was “comparable single-agent activity” each time. Moreover, the heat-shock reporter activation result with 293T reporter cells is “concentration-dependent reporter activation”. Moreover, the “Bliss synergy δ with fluconazole” value in the data set with C. albicans CaCi-2 is listed as 22.6. Moreover, in data set [2], the growth inhibition result was “significantly inhibit growth”. The “activity compared with strain expressing C. albicans Hsp90” value in data set [3] is recorded as “converse”. Also, the “effect on engulfment of C. albicans” value in the data set on Raw264.7 macrophages is recorded as “Neither compound impaired engulfment”.
